According to DBAASP:
Values after ≈ are worked out from the molar mass of the structure shown. Values joined by “and” are separate entries in the source; they are usually repeats but may differ in a detail not shown here. Equal values may be shown once.

Columns and labels:
Assay in all cases: ≥ marks a high value that may be exact or a test limit, other limits are often not marked, values filed in µg/mL are converted to µM
Pseudomonas syringae = test system: Pseudomonas syringae
[1] = test system: Xanthomonas axonopodis pv. phaseoli ATCC 9563
[2] = test system: Candida albicans NCPF 1467
[3] = test system: Staphylococcus aureus ATCC 12493
[4] = test system: Staphylococcus aureus NCTC 10788
[5] = test system: Escherichia coli NCTC 10418
[6] = test system: Aspergillus niger ATCC 16404
[7] = test system: Klebsiella pneumoniae ATCC 700603
[8] = test system: Pseudomonas aeruginosa ATCC 9027
[9] = test system: Candida albicans ATCC 10231
[10] = test system: Staphylococcus aureus ATCC 25923
[11] = test system: Enterococcus faecalis PCM 2673
[12] = test system: Candida glabrata ATCC 15126
[13] = test system: Staphylococcus aureus ATCC 9144
[14] = test system: Escherichia coli ATCC 23506
[15] = test system: Streptococcus pneumoniae ATCC 49619
[16] = test system: Escherichia coli ATCC 25922
Pseudomonas aeruginosa 2 = test system: Pseudomonas aeruginosa 2
Escherichia coli = test system: Escherichia coli
[17] = test system: Staphylococcus aureus ATCC 33591
[18] = test system: Pseudomonas aeruginosa PAO1
Klebsiella pneumoniae 2 = test system: Klebsiella pneumoniae 2
Pseudomonas aeruginosa 1 = test system: Pseudomonas aeruginosa 1
[19] = test system: Staphylococcus aureus 209P
Escherichia coli C600 = test system: Escherichia coli C600
Escherichia coli 1 = test system: Escherichia coli 1
Klebsiella pneumoniae 1 = test system: Klebsiella pneumoniae 1
[20] = test system: Enterococcus faecium mic80
Candida albicans C627 = test system: Candida albicans C627
[21] = test system: Pseudomonas aeruginosa 213
[22] = test system: Escherichia coli ESBL 63103
[23] = test system: Pseudomonas aeruginosa H103
[24] = test system: Pseudomonas aeruginosa LES400
[25] = test system: Staphylococcus aureus C623
Enterococcus faecalis VR = test system: Enterococcus faecalis VR
Pseudomonas aeruginosa = test system: Pseudomonas aeruginosa
Bacillus subtilis = test system: Bacillus subtilis
[26] = test system: Staphylococcus epidermidis
Salmonella typhimurium = test system: Salmonella typhimurium
Staphylococcus aureus MR = test system: Staphylococcus aureus MR
Staphylococcus aureus = test system: Staphylococcus aureus

Structure (SMILES): CC[C@H](C)[C@H](NC(=O)[C@H](CCCCN)NC(=O)[C@H](CC(N)=O)NC(=O)[C@H](CCCCN)NC(=O)[C@H](CC(C)C)NC(=O)[C@H](Cc1ccc(O)cc1)NC(=O)[C@H](CCC(N)=O)NC(=O)[C@H](CCCN=C(N)N)NC(=O)[C@@H](NC(=O)[C@@H](NC(=O)[C@H](CCCCN)NC(=O)[C@H](CCCCN)NC(=O)CNC(=O)[C@H](C)N)[C@@H](C)O)[C@@H](C)CC)C(=O)N[C@@H](CCCCN)C(=O)N[C@@H](CCCCN)C(=O)N[C@@H](CCCCN)C(=O)NCC(=O)N[C@@H](CCCN=C(N)N)C(=O)N[C@@H](CCCCN)C(=O)N[C@@H](Cc1c[nH]c2ccccc12)C(=O)N[C@H](C(=O)N[C@H](C(=O)N[C@@H](C)C(=O)N[C@@H](Cc1c[nH]c2ccccc12)C(=O)O)[C@@H](C)CC)C(C)C [AGKKTIRQYLKNKIKKKGRKWVIAW]
- MIC (Pseudomonas syringae): 8 µM (≈ 24.3 µg/mL)
- MIC [1]: 2 µM (≈ 6.09 µg/mL)

Structure (SMILES): CC(C)C[C@H](NC(=O)[C@H](CC(C)C)NC(=O)[C@H](CC(C)C)NC(=O)[C@@H]1CCCN1C(=O)[C@H](CC(C)C)NC(=O)[C@@H](N)Cc1ccccc1)C(=O)N[C@@H](C)C(=O)NCC(=O)N[C@@H](CC(C)C)C(=O)N1CCC[C@H]1C(=O)N[C@@H](CCCCN)C(=O)N[C@@H](Cc1ccccc1)C(=O)N[C@@H](CC(C)C)C(=O)N[C@H]1CSSC[C@@H](C(=O)O)NC(=O)[C@H](CCCCN)NC(=O)[C@H](CCCCN)NC(=O)[C@H](Cc2ccccc2)NC(=O)[C@H](C(C)C)NC(=O)[C@H](CC(C)C)NC1=O [FLPLLLAGLPKFLCLVFKKC]
- MIC [2]: 16 µM (≈ 36.2 µg/mL)
- MIC [3]: 16 µM (≈ 36.2 µg/mL)
- MIC [4]: 16 µM (≈ 36.2 µg/mL)
- MIC [5]: ≥ 512 µM

Structure (SMILES): CC[C@H](C)[C@H](NC(=O)CNC(=O)[C@H](CCCN=C(N)N)NC(=O)[C@@H](NC(=O)[C@H](CC(C)C)NC(=O)[C@H](CO)NC(=O)CNC(=O)[C@@H](NC(=O)[C@@H](N)CC(C)C)[C@@H](C)CC)C(C)C)C(=O)N[C@@H](CC(C)C)C(=O)N1CCC[C@H]1C(=O)N[C@@H](CC(C)C)C(=O)N[C@@H](Cc1ccccc1)C(N)=O [LIGSLVRGILPLF]
- MIC [6]: ≥ 183 µM
- MIC [7]: 91.6 µM (≈ 128 µg/mL)
- MIC [8]: 183 µM (≈ 256 µg/mL)
- MIC [9]: 183 µM (≈ 256 µg/mL)
- MIC [10]: 45.8 µM (≈ 64 µg/mL)
- MIC [11]: ≥ 183 µM
- MIC [12]: ≥ 183 µM
- MIC [13]: ≥ 45.8 µM
- MIC [14]: ≥ 183 µM
- MIC [15]: ≥ 183 µM
- MIC [16]: 183 µM (≈ 256 µg/mL)

Structure (SMILES): CC(C)[C@@H]1NC(=O)CNC(=O)[C@H](CCCN=C(N)N)NC(=O)[C@H](C(C)C)NC(=O)[C@H](CCCN=C(N)N)NC(=O)[C@H](C)NC(=O)[C@H](Cc2ccc(O)cc2)NC(=O)[C@H](C(C)C)NC(=O)[C@@H](NC(=O)[C@H](Cc2c[nH]c3ccccc23)NC(=O)[C@@H](N)CCCN=C(N)N)CSSC[C@@H](C(=O)N[C@@H](Cc2c[nH]c3ccccc23)C(=O)O)NC(=O)[C@H](CCCN=C(N)N)NC(=O)[C@H](CCCN=C(N)N)NC(=O)[C@H](Cc2ccc(O)cc2)NC(=O)[C@H](CCCN=C(N)N)NC1=O [RWCVYARVRGVRYRRCW]
- MIC (Pseudomonas aeruginosa 2): 4 µM (≈ 9.13 µg/mL)
- MIC (Escherichia coli): 1 µM (≈ 2.28 µg/mL)
- MIC [17]: 0.06 µM (≈ 0.137 µg/mL)
- MIC [18]: 6.25 µM (≈ 14.3 µg/mL)
- MIC (Klebsiella pneumoniae 2): 2 µM (≈ 4.57 µg/mL)
- MIC (Pseudomonas aeruginosa 1): 2 µM and 4 µM
- MIC [19]: 1.56 µM (≈ 3.56 µg/mL)
- MIC (Escherichia coli C600): 1.56 µM (≈ 3.56 µg/mL)
- MIC (Escherichia coli 1): 1 µM and 0.5 µM
- MIC (Klebsiella pneumoniae 1): 1 µM and 2 µM

Structure (SMILES): CC[C@H](C)[C@H](NC(=O)[C@H](Cc1c[nH]c2ccccc12)NC(=O)[C@H](CCCN=C(N)N)NC(=O)[C@H](Cc1c[nH]c2ccccc12)NC(=O)[C@H](Cc1c[nH]c2ccccc12)NC(=O)[C@H](CCCN=C(N)N)NC(=O)[C@H](CCCCN)NC(=O)[C@H](Cc1c[nH]c2ccccc12)NC(=O)[C@@H](N)CCCN=C(N)N)C(=O)O [RWKRWWRWI]
- MIC [20]: 21.7 µM (≈ 32 µg/mL)
- MIC (Candida albicans C627): 2.72 µM (≈ 4 µg/mL)
- MIC [10]: 5.43 µM (≈ 8 µg/mL)
- MIC [21]: 21.7 µM (≈ 32 µg/mL)
- MIC [22]: 10.9 µM (≈ 16 µg/mL)
- MIC [23]: 2.72 µM (≈ 4 µg/mL)
- MIC [24]: 21.7 µM (≈ 32 µg/mL)
- MIC [25]: 2.72 µM (≈ 4 µg/mL)

Structure (SMILES): CC(C)C[C@H](NC(=O)CNC(=O)[C@H](C)NC(=O)[C@H](CCCN=C(N)N)NC(=O)[C@H](CO)NC(=O)[C@H](CO)NC(=O)[C@H](CCCN=C(N)N)NC(=O)[C@@H](N)[C@@H](C)O)C(=O)N[C@@H](CCC(N)=O)C(=O)N[C@@H](Cc1c[nH]c2ccccc12)C(=O)N1CCC[C@H]1C(=O)N[C@H](C(=O)NCC(=O)N[C@@H](CCCN=C(N)N)C(=O)N[C@H](C(=O)N[C@@H](Cc1cnc[nH]1)C(=O)N[C@@H](CCCN=C(N)N)C(=O)N[C@@H](CC(C)C)C(=O)N[C@@H](CC(C)C)C(=O)N[C@@H](CCCN=C(N)N)C(=O)N[C@@H](CCCCN)C(=O)O)C(C)C)C(C)C [TRSSRAGLQWPVGRVHRLLRK]
- MIC (Enterococcus faecalis VR): 1 µM (≈ 2.47 µg/mL)
- MIC (Pseudomonas aeruginosa): 2 µM (≈ 4.95 µg/mL)
- MIC (Bacillus subtilis): 0.5 µM (≈ 1.24 µg/mL)
- MIC (Escherichia coli): 1 µM (≈ 2.47 µg/mL)
- MIC [26]: 2 µM (≈ 4.95 µg/mL)
- MIC (Salmonella typhimurium): 0.5 µM (≈ 1.24 µg/mL)
- MIC (Staphylococcus aureus MR): 0.707 µM (≈ 1.75 µg/mL)
- MIC (Staphylococcus aureus): 1 µM (≈ 2.47 µg/mL)
